Data on 15 compounds can be found in patent US11351178B2, “Selective HDAC6 inhibitors” (ITALFARMACO S.P.A., priority 2017, dated 2022).

The structures appear in SMILES notation.

One data set has as its target T1, HDAC8 (Homo sapiens, UniProt Q9BY41).
T1 construct: purchased BPS 50008
T1 sequence (Q9BY41 1-377): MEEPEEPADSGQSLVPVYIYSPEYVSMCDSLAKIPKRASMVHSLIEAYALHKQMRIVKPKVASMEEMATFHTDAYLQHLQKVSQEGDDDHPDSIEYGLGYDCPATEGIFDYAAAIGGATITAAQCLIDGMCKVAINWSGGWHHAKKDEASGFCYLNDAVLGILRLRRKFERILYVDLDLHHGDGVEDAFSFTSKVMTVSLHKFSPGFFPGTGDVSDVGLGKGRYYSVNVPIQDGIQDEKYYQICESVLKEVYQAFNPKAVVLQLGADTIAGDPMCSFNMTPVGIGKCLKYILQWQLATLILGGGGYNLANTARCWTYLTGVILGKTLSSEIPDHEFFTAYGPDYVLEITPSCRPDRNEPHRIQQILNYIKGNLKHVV
The data set is described as follows: Enzymatic test HDAC8. Format: biochemical. The following applies: Table 3.

Data set [1] in a line: Pharmacokinetics after single intravenous and oral administration to the mouse.
Protocol: Plasma levels and main pharmacokinetic parameters of test compounds were evaluated after single intravenous and oral administration to the mouse.
The formulations were prepared in a mixture of DMSO/PEG400/H2O. Blood was collected at the following sampling times: 5, 10, 15, 30 minutes, 1, 2, 4 and 6 hours after administration. Plasma samples (100 μL) were deproteinized by addition of 1% formic acid in ACN, then vortex mixed and centrifuged. For each sample, an aliquot of the supernatant was collected and diluted with water, filtered with 0.45 μm regenerated cellulose filter and analysed by LC-MS/MS. Plasma levels of the test compounds were calculated on a calibration curve prepared in the range 0.5-200 ng/mL.
Pharmacokinetic parameters were calculated on the mean plasma concentration curve using the software Kinetica™ v.
Data set [2] in a line: Stability to Phase I metabolism in human S9 liver fraction. Format: in vitro ADME. In a few lines:
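Compounds were incubated with rat or human liver S9 fraction at 37 °C for up to 90 min. Reactions were quenched on ice with acidified acetonitrile and analysed by HPLC-UV or LC-MS/MS. Percent remaining versus time zero and intrinsic clearance were calculated.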

Data set [3] relates to H3 histone acetylation in 697 cell line. Put plainly: In vitro H3 histone acetylation in 697 cell line. Format: cell-based. The following applies: 16 h, read-out: Acetylation of H3 histone (fold increase of acetylated H3/total H3 towards control); for fold induction at 0.111 µM: conc 111 nM; for fold induction at 0.333 µM: conc 333 nM; for fold induction at 1 µM: conc 1000 nM. As to the method: (§1) The in vitro α-tubulin and H3 histone acetylation determination was evaluated on B 697 […] cell line.
(§2) The test molecules were diluted from 20 mM stock solution in DMSO with RPMI 10% FCS+0.01% DMSO medium at 20× concentration compared to the final concentration, added to the cells (15×10^6 cells in a total volume of 30 ml in RPMI medium 10% FCS+0.01% DMSO) to obtain the final concentrations of 1000, 333, 111 and 37 nM and incubated at 37° C., 5% CO2 for 16 hours.
The remaining cells (10×10^6) were treated by acid extraction of histones (Kazuhiro et al., PNAS (2002), 99 (13) 8921-8926). Cells were centrifuged 5 min at 1100 rpm at 4° C. and washed once in 0.9% NaCl. The resulting pellet was lysed with […] (10 mM Tris.HCl, pH 6.5/50 mM sodium bisulphite, 1% Triton X-100/10 mM MgCl2/8.6% saccharose containing the protease inhibitor mixture (Roche)) for 20 min at 4° C. The resulting nucleus pellet was repeatedly washed in buffer until supernatant clarification (centrifuged at 7,500×g, 5 minutes after each wash) and finally washed in nucleus buffer (10 mM Tris.HCl/13 mm EDTA, pH 7, 4) and resuspended in 250 μl of 0.2 M HCl/H2SO4. Histone proteins were extracted in an acidic environment by incubating overnight at 4° C. under gentle shaking. After centrifugation at 14,000 rpm at 4° C. for 10 minutes, 1250 μl of cold acetone was added to the supernatant and incubated overnight at −20° C., resulting in the precipitation of histone proteins. The pellet obtained after centrifugation for 10 minutes at 14000 rpm and 4° C. was washed with cold acetone, evaporated to dryness and resuspended in 50 μl distilled water. The protein content determination of both total and histone extracts was carried out by a colorimetric assay using a BCA Protein Assay Kit (Pierce cat: 23227).
H3 histone acetylation and total H3 amount were quantified by commercial ELISA assays PathScan acetylated histone H3 Sandwich Elisa kit, cat #7232C and PathScan total histone H3 Sandwich Elisa Kit, cat #7253C Cell Signaling) according to supplier reported method and by detecting absorbance at 450 nm wavelength using Multiskan Spectrum. ELISA tests were performed by analysing 0.250 μg and 0.500 μg of histone extract of each sample. The degree of acetylation was calculated by dividing H3 histone absorbance by histone total absorbance.
(§3) Test results of tubulin and H3 histone acetylation, expressed as fold increase of ratio of acetylated α-tubulin/total α-tubulin and H3Ac/H3Tot, respectively, of each sample relative to the control sample (untreated) are summarized in Tables 6 and 6′.

Data set [4] deals with α-tubulin acetylation in 697 cell line. The data set is described as follows: In vitro α-tubulin acetylation in 697 cell line. Type of data set: cell-based. The following applies: 16 hours, read-out: Tubulin acetylation (ratio of acetylated tubulin and total tubulin towards control); for fold induction at 0.037 µM: Conc 37 nM; for fold induction at 0.111 µM: Conc 111 nM; for fold induction at 0.333 µM: Conc 333 nM; for fold induction at 1 µM: Conc 1000 nM. As to the method: as §1, §2
At the end of the incubation period, 5×10^6 cells were taken from each sample, centrifuged for 5 minutes at 1100 rpm and washed in 0.9% NaCl at 4° C. The resulting pellet was lysed by treating at 4° C. for 30 minutes with 150 μl of Complete Lysis-M (Roche, cat-04719956051) containing protease inhibitors and phosphatase (Complete Easy Pack proteinase inhibitor cocktail tablets cat: 04693116001, Phostop easypack phosphatase inhibitor cocktails, cat: 01906837001—Roche), then centrifuged 10 minutes at 14,000 rpm (20817×g). 0.150 μg of supernatant (total protein extract) were diluted in 100 μl of 1×PBS and immobilized in Maxisorp F96 NUN-IMMUNO Plate (Nunc cat #5442404) at room temperature overnight. Plates were washed twice with Wash Buffer (PBS1X+0.005% tween 20) and saturated for 1 hour at room temperature with 300 μL of 1×PBS containing 10 FCS. After washing with buffer (1×PBS containing 0.005% tween), the plates were incubated for two hours at room temperature in the presence of anti-acetylated-α-tubulin antibody (Monoclonal Anti-acetylated-tubulin clone 6-11B-1, mouse ascites fluid, cat #T6793 Sigma, 100 μl diluted 1:1000 in 1×PBS containing 10% FCS) or with total anti-α-tubulin antibody (Monoclonal Anti alpha-tubulin produced in mouse, cat #T6074 Sigma). After washing, 100 μl per well of TMB substrate kit was added for 10 minutes at room temperature in the dark. The reaction was stopped by adding 50 μl of 2N H2SO4. The plates were read at Multiskan Spectrum spectrophotometer at a wavelength of 450 nm.
The degree of acetylation was calculated by dividing the absorbance obtained for acetylated α-tubulin by the absorbance of total α-tubulin.
as §3

Where [5] appears, read: human liver S9 fraction, after 90 min, 37° C.

What is called IC50 is the concentration that gives 50% inhibition. By AUC is commonly meant the area under the concentration-time curve, a measure of exposure. Lower therefore signals low exposure. The term half-life denotes the time in which the quantity being followed falls by half. High values mean slow decline, low ones rapid decline. By Tmax is commonly meant the time at which the peak concentration occurs. The bioavailability is dose-corrected exposure relative to a reference, in per cent. Lower therefore signals little systemic uptake. For `Cn1c(Sc2c(F)cc(C(=O)NO)cc2F)nnc1-c1cccs1` [comp. 17, 3,5-difluoro-N-hydroxy-4-((4-methyl-5-(thiophen-2-yl)-4H-1,2,4-triazol-3-yl)thio)benzamide], at HDAC8, the IC50 turned out to be 193 nM. Also, in data set [1] (plasma, iv, 1.3 mg/kg), the AUC worked out at 114 ng·h/mL, the C0 was determined as 727 ng/mL, the Vd worked out at 16.8 L/kg and the clearance is 190 mL/min/kg. Besides, the half-life in data set [1] (plasma, iv, 1.3 mg/kg) was 60 min. Also, in data set [1] (plasma, po, […]), the Tmax amounted to 4.8 min and the bioavailability was found to be 18.4%. Besides, the “residual percentage in human S9 fraction” value in data set [2] (setting [5]) is 83%.
As to `COc1ccc(C(=O)N[C@@H](Cc2cscn2)c2nc(Cc3ccc(C(=O)NO)cc3)no2)cc1OC` [comp. 1, (S)—N-(1-(3-(4-(hydroxycarbamoyl)benzyl)-1,2,4-oxadiazol-5-yl)-2-(thiazol-4-yl)ethyl)-3,4-dimethoxybenzamide], on HDAC8, the IC50 was determined as 710 nM. In addition, in data set [2] (human, 90 min, pH 7.4), the “residual percentage in human S9 fraction” value was found to be 81%.
`O=C(NO)c1cc(F)c(Cn2nnnc2-c2ccccn2)c(F)c1` [comp. 13, 3,5-difluoro-N-hydroxy-4-((5-(pyridin-2-yl)-1H-tetrazol-1-yl)methyl)benzamide] came in with an IC50 against HDAC8 of 490 nM. The “residual percentage in human S9 fraction” value in data set [2] (human, 90 min, pH 7.4) was 98%.
In turn, `O=C(NO)c1cc(F)c(Cn2nnc(-c3ccccn3)n2)c(F)c1` [comp. 6, 3,5-difluoro-N-hydroxy-4-((5-(pyridin-2-yl)-2H-tetrazol-2-yl)methyl)benzamide] displayed an IC50 on HDAC8 of 1020 nM. In addition, the “residual percentage in human S9 fraction” value in data set [2] (setting [5]) was determined as 85.6%.
Regarding `O=C(NO)c1ccc(Cc2nnc(-c3ccc(F)cc3F)o2)cc1` [comp. 58, 4-((5-(2,4-difluorophenyl)-1,3,4-oxadiazol-2-yl)methyl)-N-hydroxybenzamide], the IC50 against HDAC8 amounted to 1000 nM.
`O=C(NO)c1ccc(Cn2nnc(-c3cccs3)n2)cc1` [comp. 50, 4-[[5-(2-thienyl)tetrazol-2-yl]methyl]benzenecarbohydroxamic acid] came in with an IC50 against HDAC8 of 455 nM.
Take `O=C(NO)c1cc(F)c(Cn2nnc(-c3cccs3)n2)c(F)c1` [comp. 65, 3,5-difluoro-4-[[5-(2-thienyl)tetrazol-2-yl]methyl]benzenecarbohydroxamic acid]: the concentration for half-maximal inhibition (IC50) on HDAC8 amounted to 1080 nM.
With `O=C(NO)c1ccc(Cn2nnc(-c3ccc(C(F)(F)F)cc3)n2)cc1` [comp. 23, 4-[[5-[4-(trifluoromethyl)phenyl]tetrazol-2-yl]methyl]benzenecarbohydroxamic acid], at HDAC8, the IC50 stood at 2830 nM.
Broadly, the Cmax is the peak of the concentration-time curve. Consider `O=C(NO)c1ccc(Cn2nnnc2-c2cccs2)cc1` [comp. 8, N-hydroxy-4-((5-(thiophen-2-yl)-1H-tetrazol-1-yl)methyl)benzamide], for which, in data set [1] (Os, dose 5.2 mg/kg), the AUCtot stood at 94 ng·h/mL, the Cmax is 238 ng/mL and the Tmax was determined as 4.8 min. Besides, in data set [1] (i.v., dose […]), the T1/2 stood at 60 min and the Vd was 15.3 L/kg. In data set [1] (plasma, po, 5.2 mg/kg), the bioavailability was 18.5%. In data set [2] (setting [5]), the “residual percentage in human S9 fraction” value was determined as 100%.
The compound `Cn1c(Sc2c(F)cc(C(=O)NO)cc2F)nnc1C(c1ccccc1)c1ccccc1` [comp. 98, 4-[(5-benzhydryl-4-methyl-1,2,4-triazol-3-yl)sulfanyl]-3,5-difluoro-benzenecarbohydroxamic acid] gave an IC50 against HDAC8 of 186 nM.
Take `Cc1cc(-c2nnc(Sc3ccc(C(=O)NO)cc3)n2C)nn1C` [comp. 85, 4-[[5-(1,5-dimethylpyrazol-3-yl)-4-methyl-1,2,4-triazol-3-yl]sulfanyl]benzenecarbohydroxamic acid]: it took 216 nM to reach half-maximal inhibition against HDAC8 (IC50).
On to `O=C(NO)c1cc(F)c(Cn2nnnc2-c2cccs2)c(F)c1` [comp. 15, 3,5-difluoro-N-hydroxy-4-((5-(thiophen-2-yl)-1H-tetrazol-1-yl)methyl)benzamide], for which it took 999 nM to reach half-maximal inhibition against HDAC8 (IC50). In addition, in data set [3], the fold induction at 0.111 µM was 1, the fold induction at 0.333 µM was determined as 1 and the fold induction at 1 µM is 1. Also, in data set [4], the fold induction at 0.037 µM was determined as 1, the fold induction at 0.111 µM amounted to 3, the fold induction at 0.333 µM was 5 and the fold induction at 1 µM came to 12. In data set [2] (human, 90 min, pH 7.4), the “residual percentage in human S9 fraction” value is 83%.
For `O=C(NO)c1ccc(Cn2nnc(-c3ccccc3F)n2)cc1` [comp. 33, 4-[[5-(2-fluorophenyl)tetrazol-2-yl]methyl]benzenecarbohydroxamic acid], the concentration for half-maximal inhibition (IC50) on HDAC8 was 413 nM.
Regarding `O=C(NO)c1cc(F)c(Cn2nnc(-c3ccco3)n2)c(F)c1` [comp. 19, 3,5-difluoro-4-((5-(furan-2-yl)-2H-tetrazol-2-yl)methyl)-N-hydroxybenzamide], the IC50 on HDAC8 was 647 nM. Also, in data set [3], the fold induction at 0.111 µM turned out to be 1, the fold induction at 0.333 µM came out at 2 and the fold induction at 1 µM came to 2. Moreover, in data set [4], the fold induction at 0.037 µM amounted to 7, the fold induction at 0.111 µM worked out at 15, the fold induction at 0.333 µM was found to be 21 and the fold induction at 1 µM turned out to be 17. Besides, the “residual percentage in human S9 fraction” value in data set [2] (setting [5]) is 94%.
In turn, `CN(C)S(=O)(=O)c1cccc(-c2nnn(Cc3ccc(C(=O)NO)cc3)n2)c1` [comp. 59, 4-[[5-[3-(dimethylsulfamoyl)phenyl]tetrazol-2-yl]methyl]benzenecarbohydroxamic acid] gave an IC50 against HDAC8 of 547 nM.
